Reference: US10221161B2, “Inhibitors of plasma kallikrein” (Kalvista Pharmaceuticals Limited, priority 2013, dated 2019)

Key:
Human KLK1 = Human KLK1 (Homo sapiens (Human), UniProt P06870); experiment: Determination of the IC50 for KLK1 (fluorogenic substrate H-DVal-Leu-Arg-AFC); assay type: biochemical; settings: human KLK1, 37° C.
Description: Selected compounds were further screened for inhibitory activity against the related enzyme KLK1. The ability of the compounds of formula (I) to inhibit KLK1 may be determined using the following biological assay:
Determination of the IC50 for KLK1
KLK1 inhibitory activity in vitro was determined using standard published methods (see e.g. Johansen et al., Int. J. Tiss. Reac. 1986, 8, 185; Shori et al., Biochem. Pharmacol., 1992, 43, 1209; Stürzebecher et al., Biol. Chem. Hoppe-Seyler, 1992, 373, 1025). Human KLK1 (Callbiochem) was incubated at 37° C. with the fluorogenic substrate H-DVal-Leu-Arg-AFC and various concentrations of the test compound. Residual enzyme activity (initial rate of reaction) was determined by measuring the change in optical absorbance at 410 nm and the IC50 value for the test compound was determined.

Human plasma kallikrein = Human plasma kallikrein (Homo sapiens (Human), UniProt P03952); experiment: Determination of the IC50 for plasma kallikrein (fluorogenic substrate H-DPro-Phe-Arg-AFC); assay type: biochemical; settings: 37° C., read-out: IC50 (human PKal)
Chain of Human plasma kallikrein (P03952 391-638 limits assumed): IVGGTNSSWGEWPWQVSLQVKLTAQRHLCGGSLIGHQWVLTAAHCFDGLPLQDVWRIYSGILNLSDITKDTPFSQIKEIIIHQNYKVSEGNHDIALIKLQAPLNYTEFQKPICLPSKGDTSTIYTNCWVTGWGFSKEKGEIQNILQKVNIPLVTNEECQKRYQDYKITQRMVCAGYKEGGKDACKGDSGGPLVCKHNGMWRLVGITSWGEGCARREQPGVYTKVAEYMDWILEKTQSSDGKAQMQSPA
Chain of Human plasma kallikrein (P03952 20-390 partner limits assumed): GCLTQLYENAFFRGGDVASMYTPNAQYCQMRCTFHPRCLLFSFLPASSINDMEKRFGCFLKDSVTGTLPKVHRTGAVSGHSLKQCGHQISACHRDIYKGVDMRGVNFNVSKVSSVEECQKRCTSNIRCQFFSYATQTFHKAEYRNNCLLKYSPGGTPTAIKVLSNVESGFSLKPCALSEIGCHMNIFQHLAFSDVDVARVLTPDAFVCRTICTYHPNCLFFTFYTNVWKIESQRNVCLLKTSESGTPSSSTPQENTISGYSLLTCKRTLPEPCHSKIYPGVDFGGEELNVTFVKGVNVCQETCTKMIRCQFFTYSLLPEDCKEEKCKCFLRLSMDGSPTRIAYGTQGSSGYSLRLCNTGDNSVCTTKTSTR
Description: Determination of the IC50 Plasma Kallikrein Plasma kallikrein inhibitory activity in vitro was determined using standard published methods (see e.g. Johansen et al., Int. J. Tiss. […] Shori et al., Biochem. Pharmacol., 1992, 43, 1209; Stürzebecher et al., Biol. Chem. Hoppe-Seyler, 1992, 373, 1025). Human plasma kallikrein (Protogen) was incubated at 37° C. with the fluorogenic substrate […] and various concentrations of the test compound.

Chain of Human KLK1 (P06870 25-262): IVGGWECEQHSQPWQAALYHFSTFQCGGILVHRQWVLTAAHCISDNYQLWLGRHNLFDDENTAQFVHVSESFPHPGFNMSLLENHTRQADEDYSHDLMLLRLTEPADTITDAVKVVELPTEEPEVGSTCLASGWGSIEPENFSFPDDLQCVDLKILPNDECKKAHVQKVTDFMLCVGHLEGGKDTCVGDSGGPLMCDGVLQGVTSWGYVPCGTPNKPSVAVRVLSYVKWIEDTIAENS

Row | SMILES | IC50 (Human KLK1) | IC50 (Human plasma kallikrein)
1 | CCOC(=O)C1CCN(c2ccc(Cc3cncc(C(=O)NCc4ccc5c(N)nccc5c4)c3)cn2)C1 (stereo not shown) [Example 72, Ethyl 1-{5-[(5-{[(1-aminoisoquinolin-6-yl)methyl]carbamoyl}pyridin-3-yl)methyl]pyridin-2-yl}pyrrolidine-3-carboxylate] | 3.62 µM | 0.86 µM
2 | Nc1nccc2cc(CNC(=O)c3cncc(Cc4ccc(F)nc4)c3)ccc12 [Example 54, N-[(1-Aminoisoquinolin-6-yl)methyl]-5-[(6-fluoropyridin-3-yl)methyl]pyridine-3-carboxamide] | 10.7 µM | 14.6 µM
3 | CN1CCN(c2ccc(Cc3cncc(C(=O)NCc4ccc5c(N)nccc5c4)c3)cn2)CC1 [Example 64, N-[(1-Aminoisoquinolin-6-yl)methyl]-5-{[6-(4-methylpiperazin-1-yl)pyridin-3-yl]methyl}pyridine-3-carboxamide] | 5.34 µM | 0.61 µM
4 | Nc1nccc2cc(CNC(=O)c3cncc(Cc4cccc(Cn5cccn5)c4)c3)ccc12 [Example 32, N-[(1-Aminoisoquinolin-6-yl)methyl]-5-{[3-(pyrazol-1-ylmethyl)phenyl]methyl}pyridine-3-carboxamide] | 9.53 µM | 0.237 µM
5 | Nc1nccc2cc(CNC(=O)c3cncc(CN4CCN(Cc5ccccc5)CC4)c3)ccc12 [Example 41, N-[(1-Aminoisoquinolin-6-yl)methyl]-5-[(4-benzylpiperazin-1-yl)methyl]pyridine-3-carboxamide] | 37 µM | 2.75 µM
6 | Cc1cnn(Cc2ccc(Cc3cc(C(=O)NCc4ccc5c(N)nccc5c4)ncn3)cc2)c1 [Example 8, N-[(1-Aminoisoquinolin-6-yl)methyl]-6-({4-[(4-methylpyrazol-1-yl)methyl]phenyl}methyl)pyrimidine-4-carboxamide] | 28.2 µM | 0.119 µM
7 | CC1(C)CCN(c2ccc(Cc3cncc(C(=O)NCc4ccc5c(N)nccc5c4)c3)cn2)C1 [Example 74, N-[(1-Aminoisoquinolin-6-yl)methyl]-5-{[6-(3,3-dimethylpyrrolidin-1-yl)pyridin-3-yl]methyl}pyridine-3-carboxamide] | > 10 µM | 0.0831 µM
8 | CN(C)[C@@H]1CCN(c2cc(Cc3cncc(C(=O)NCc4ccc5c(N)nccc5c4)c3)ccn2)C1 (stereo in doubt) [Example 90, N-[(1-Aminoisoquinolin-6-yl)methyl]-5-({2-[3-(dimethylamino)pyrrolidin-1-yl]pyridin-4-yl}methyl)pyridine-3-carboxamide] | 3.88 µM | 1.55 µM
9 | CN(C)[C@H]1CCN(c2cc(Cc3cncc(C(=O)NCc4ccc5c(N)nccc5c4)c3)ccn2)C1 (stereo in doubt) [Example 91, N-[(1-Aminoisoquinolin-6-yl)methyl]-5-({2-[3-(dimethylamino)pyrrolidin-1-yl]pyridin-4-yl}methyl)pyridine-3-carboxamide] | 2.11 µM | 1.71 µM
10 | CC1CCN(c2ccc(Cc3cncc(C(=O)NCc4ccc5c(N)nccc5c4)c3)cn2)C1 (stereo not shown) [Example 61, N-[(1-Aminoisoquinolin-6-yl)methyl]-5-{[6-(3-methylpyrrolidin-1-yl)pyridin-3-yl]methyl}pyridine-3-carboxamide] | 6.55 µM | 0.137 µM
11 | Nc1nccc2cc(CNC(=O)c3cncc(CN4CCN(CC(=O)O)CC4)c3)ccc12 [Example 52, {4-[(5-{[(1-Aminoisoquinolin-6-yl)methyl]carbamoyl}pyridin-3-yl)methyl]piperazin-1-yl}acetic acid] | > 10 µM | 10 µM
12 | Nc1nccc2cc(CNC(=O)c3cncc(CN4CCN(CCCc5ccccc5)CC4)c3)ccc12 [Example 50, N-[(1-Aminoisoquinolin-6-yl)methyl]-5-{[4-(3-phenylpropyl)piperazin-1-yl]methyl}pyridine-3-carboxamide] | > 10 µM | 10 µM
13 | Nc1nccc2cc(CNC(=O)c3cncc(CN4CCN(S(=O)(=O)c5ccccc5)CC4)c3)ccc12 [Example 35, N-[(1-Aminoisoquinolin-6-yl)methyl]-5-{[4-(benzenesulfonyl)piperazin-1-yl]methyl}pyridine-3-carboxamide] | 29.8 µM | 3.51 µM
14 | Nc1nccc2cc(CNC(=O)c3cncc(Cc4ccnc(N5CCC(O)C5)c4)c3)ccc12 (stereo not shown) [Example 81, N-[(1-Aminoisoquinolin-6-yl)methyl]-5-{[2-(3-hydroxypyrrolidin-1-yl)pyridin-4-yl]methyl}pyridine-3-carboxamide] | 9.57 µM | 0.674 µM
15 | COc1ncc(Cc2ccc3nc(C)ccc3c2)cc1C(=O)NCc1ccc2c(N)nccc2c1 [Example 19, N-[(1-Aminoisoquinolin-6-yl)methyl]-2-methoxy-5-[(2-methylquinolin-6-yl)methyl]pyridine-3-carboxamide] | 1.21 µM | 0.434 µM
16 | CC1(C)CCCN1c1cc(Cc2cncc(C(=O)NCc3ccc4c(N)nccc4c3)c2)ccn1 [Example 84, N-[(1-Aminoisoquinolin-6-yl)methyl]-5-{[2-(2,2-dimethylpyrrolidin-1-yl)pyridin-4-yl]methyl}pyridine-3-carboxamide] | 10.7 µM | 0.683 µM
17 | CN1CCOc2cc(Cc3cncc(C(=O)NCc4ccc5c(N)nccc5c4)c3)ccc21 [Example 38, N-[(1-Aminoisoquinolin-6-yl)methyl]-5-[(4-methyl-2,3-dihydro-1,4-benzoxazin-7-yl)methyl]pyridine-3-carboxamide] | 8.6 µM | 0.107 µM
18 | COc1cccc(CN2CCN(Cc3cncc(C(=O)NCc4ccc5c(N)nccc5c4)c3)CC2)c1 [Example 49, N-[(1-Aminoisoquinolin-6-yl)methyl]-5-({4-[(3-methoxyphenyl)methyl]piperazin-1-yl}methyl)pyridine-3-carboxamide] | > 10 µM | 6.99 µM
19 | Nc1nccc2cc(CNC(=O)c3cncc(CN4CCN(Cc5ccccc5F)CC4)c3)ccc12 [Example 44, N-[(1-Aminoisoquinolin-6-yl)methyl]-5-({4-[(2-fluorophenyl)methyl]piperazin-1-yl}methyl)pyridine-3-carboxamide] | 28 µM | 6.79 µM
20 | Nc1nccc2cc(CNC(=O)c3ccc(=O)n(Cc4ccc(Cn5ccccc5=O)cc4)c3)ccc12 [Example 5, N-[(1-Aminoisoquinolin-6-yl)methyl]-6-oxo-1-({4-[(2-oxopyridin-1-yl)methyl]phenyl}methyl)pyridine-3-carboxamide] | 28.9 µM | 0.0247 µM
21 | CNc1ncc(C(=O)NCc2ccc3c(N)nccc3c2)cc1Cc1ccc2nc(C)ccc2c1 [Example 21, N-[(1-Aminoisoquinolin-6-yl)methyl]-6-(methylamino)-5-[(2-methylquinolin-6-yl)methyl]pyridine-3-carboxamide] | 5.99 µM | 0.0533 µM
22 | Nc1nccc2cc(CNC(=O)c3cncc(Cc4ccc(N5CCCC5)nc4)c3)ccc12 [Example 55, N-[(1-Aminoisoquinolin-6-yl)methyl]-5-{[6-(pyrrolidin-1-yl)pyridin-3-yl]methyl}pyridine-3-carboxamide] | 4.96 µM | 0.103 µM
23 | Cc1cnn(Cc2ccc(Cc3cncc(C(=O)NCc4ccc(CN)cc4C)c3)cc2)c1 [Example 93, N-{[4-(Aminomethyl)-2-methylphenyl]methyl}-5-({4-[(4-methylpyrazol-1-yl)methyl]phenyl}methyl)pyridine-3-carboxamide] | > 40 µM | 0.0144 µM
24 | Nc1nccc2cc(CNC(=O)c3cncc(Cc4ccnc(N5CCCC5)c4)c3)ccc12 [Example 77, N-[(1-Aminoisoquinolin-6-yl)methyl]-5-{[2-(pyrrolidin-1-yl)pyridin-4-yl]methyl}pyridine-3-carboxamide] | 4.8 µM | 0.0377 µM
25 | CN(C)[C@@H]1CCN(c2ccc(Cc3cncc(C(=O)NCc4ccc5c(N)nccc5c4)c3)cn2)C1 (stereo in doubt) [Example 69, N-[(1-Aminoisoquinolin-6-yl)methyl]-5-({6-[3-(dimethylamino)pyrrolidin-1-yl]pyridin-3-yl}methyl)pyridine-3-carboxamide] | 2.43 µM | 0.579 µM
26 | COc1ccc(Cc2cncc(C(=O)NCc3ccc4c(N)nccc4c3)c2)cc1 [Example 26, N-[(1-Aminoisoquinolin-6-yl)methyl]-5-[(4-methoxyphenyl)methyl]pyridine-3-carboxamide] | > 40 µM | 0.941 µM
27 | Nc1nccc2cc(CNC(=O)c3cncc(Cc4ccc5ccncc5c4)c3)ccc12 [Example 28, N-[(1-Aminoisoquinolin-6-yl)methyl]-5-(isoquinolin-7-ylmethyl)pyridine-3-carboxamide] | 5.9 µM | 1.1 µM
28 | CC1(C)CCCN1c1ccc(Cc2cncc(C(=O)NCc3ccc4c(N)nccc4c3)c2)cn1 [Example 65, N-[(1-Aminoisoquinolin-6-yl)methyl]-5-{[6-(2,2-dimethylpyrrolidin-1-yl)pyridin-3-yl]methyl}pyridine-3-carboxamide] | > 10 µM | 0.131 µM
29 | COc1cc(Cc2cncc(C(=O)NCc3ccc4c(N)nccc4c3)c2)ccc1Cn1cc(C)cn1 [Example 33, N-[(1-Aminoisoquinolin-6-yl)methyl]-5-({3-methoxy-4-[(4-methylpyrazol-1-yl)methyl]phenyl}methyl)pyridine-3-carboxamide] | 17.1 µM | 0.0171 µM
